Reference: patent US20040127446A1 (priority 1992, published 2004)
[invAb] = 3' inverted deoxyabasic cap; [amino-N] = 2'-deoxy-2'-amino nucleotide (N: the base); [I] = hypoxanthine (inosine); m = 2'-O-methyl; r = 2'-OH (RNA)

Test system: plus strand HCV RNA
Format: biochemical, Hepatitis C virus
Settings: plus strand (+) HCV site, 50 mM Tris-Cl, pH 8.0, 40 mM Mg2+ at 37°, trace substrate, enzymatic nucleic acid concentration of 500 nM or greater

| Substance | % Substrate Cleaved in 3 hours |
| --- | --- |
| 22720 (GGAGAGGUGAUGGCAUGCACUAUGCGCGAUAUACA; sugars from the 5' end mmmmmmmmrrrmmmmmrmmmmmmmmmrmmmmmmmm, [invAb] at 3' end, backbone not given here) [compound 22720] | 77.74% |
| 22721 (UCUAAGGUGAUGGCAUGCACUAUGCGCGACACGGU; sugars from the 5' end mmmmmmmmrrrmmmmmrmmmmmmmmmrmmmmmmmm, [invAb] at 3' end, backbone not given here) [compound 22721] | 47.37% |
| 22722 (ACCACCUUGAUGGCAUGCACUAUGCGCGACUCCAC; sugars from the 5' end mmmmmmmmrrrmmmmmrmmmmmmmmmrmmmmmmmm, [invAb] at 3' end, backbone not given here) [compound 22722] | 75.84% |
| 22723 (ACAGGUUUGAUGGCAUGCACUAUGCGCGAACUCGU; sugars from the 5' end mmmmmmmmrrrmmmmmrmmmmmmmmmrmmmmmmmm, [invAb] at 3' end, backbone not given here) [compound 22723] | 61.58% |
| 22748 (AGGUGAAGCCGAAAGGCGAGUGAGGUCUAGCUGAG; 2'-O-methyl at 1, 2, 3, 4, 5, 6, 7, 8, 9, 10, 11, 12, 13, 14, 15, 16, [amino-N] at 17, 27, [invAb] at 3' end, other sugars and backbone not given here) [compound 22748] | 80.28% |
| 22749 (GGAAAAGGCCGAAAGGCGAGUGAGGUCUAACAGGA; 2'-O-methyl at 1, 2, 3, 4, 5, 6, 7, 8, 9, 10, 11, 12, 13, 14, 15, 16, [amino-N] at 17, 27, [invAb] at 3' end, other sugars and backbone not given here) [compound 22749] | 90.80% |
| 22750 (AGAAGAAGCCGAAAGGCGAGUGAGGUCUACGAGGAN; 2'-O-methyl, 2'-amino and inverted abasic, amino positions listed inconsistently, further chemistry not given here) [compound 22750] | 80.64% |
| 22751 (GAGUUGAGCCGAAAGGCGAGUGAGGUCUUGGAGUG; 2'-O-methyl at 1, 2, 3, 4, 5, 6, 7, 8, 9, 10, 11, 12, 13, 14, 15, 16, [amino-N] at 17, 27, [invAb] at 3' end, other sugars and backbone not given here) [compound 22751] | 14.85% |
| 22775 (AAGAGGACUGAUGAGGCCGUUAGGCCGAANAUAGAG; ribozyme; 2'-O-methyl at 1, 2, 3, 4, 5, 6, 7, 15, 16, 17, 18, 19, 20, 21, 22, 23, 24, 25, 26, 31, 32, 33, 34, 35, 36, [I] at 30, [invAb] at 3' end, other sugars and backbone not given here) [compound 22775] | 87.74% |
| 22776 (GGUGAACCUGAUGAGGCCGUUAGGCCGAANCUGAGA; ribozyme; 2'-O-methyl at 1, 2, 3, 4, 5, 6, 7, 15, 16, 17, 18, 19, 20, 21, 22, 23, 24, 25, 26, 31, 32, 33, 34, 35, 36, [I] at 30, [invAb] at 3' end, other sugars and backbone not given here) [compound 22776] | 84.55% |
| 22777 (CGAGGAACUGAUGAGGCCGUUAGGCCGAANAGAGGA; ribozyme; 2'-O-methyl at 1, 2, 3, 4, 5, 6, 7, 15, 16, 17, 18, 19, 20, 21, 22, 23, 24, 25, 26, 31, 32, 33, 34, 35, 36, [I] at 30, [invAb] at 3' end, other sugars and backbone not given here) [compound 22777] | 90.12% |
| 22778 (UGAUGGACUGAUGAGGCCGUUAGGCCGAANCUGUGA; ribozyme; 2'-O-methyl at 1, 2, 3, 4, 5, 6, 7, 15, 16, 17, 18, 19, 20, 21, 22, 23, 24, 25, 26, 31, 32, 33, 34, 35, 36, [I] at 30, [invAb] at 3' end, other sugars and backbone not given here) [compound 22778] | 83.77% |
| 22779 (UGAGGAACUGAUGAGGCCGUUAGGCCGAANGUGGAG; ribozyme; 2'-O-methyl at 1, 2, 3, 4, 5, 6, 7, 15, 16, 17, 18, 19, 20, 21, 22, 23, 24, 25, 26, 31, 32, 33, 34, 35, 36, [I] at 30, [invAb] at 3' end, other sugars and backbone not given here) [compound 22779] | 82.22% |
| 22943 (GCUGAGACUGAUGAGGCCGUUAGGCCGAAACGAGGA; 2'-O-methyl at 1, 2, 3, 4, 5, 6, 7, 15, 16, 17, 18, 19, 20, 21, 22, 23, 24, 25, 26, 31, 32, 33, 34, 35, 36, [invAb] at 3' end, other sugars and backbone not given here) [compound 22943] | 89.67% |
| 22944 (UCCUGUUCUGAUGAGGCCGUUAGGCCGAAAUGUGCC; 2'-O-methyl at 1, 2, 3, 4, 5, 6, 7, 15, 16, 17, 18, 19, 20, 21, 22, 23, 24, 25, 26, 31, 32, 33, 34, 35, 36, [invAb] at 3' end, other sugars and backbone not given here) [compound 22944] | 90.33% |
| 22945 (GGAAGGACUGAUGAGGCCGUUAGGCCGAAAGGAUGC; 2'-O-methyl at 1, 2, 3, 4, 5, 6, 7, 15, 16, 17, 18, 19, 20, 21, 22, 23, 24, 25, 26, 31, 32, 33, 34, 35, 36, [invAb] at 3' end, other sugars and backbone not given here) [compound 22945] | 82.54% |
| 22946 (CUCCACGCUGAUGAGGCCGUUAGGCCGAAACUCCUC; 2'-O-methyl at 1, 2, 3, 4, 5, 6, 7, 15, 16, 17, 18, 19, 20, 21, 22, 23, 24, 25, 26, 31, 32, 33, 34, 35, 36, [invAb] at 3' end, other sugars and backbone not given here) [compound 22946] | 78.06% |
| 22947 (GGAGUGACUGAUGAGGCCGUUAGGCCGAAAAUGCGC; 2'-O-methyl at 1, 2, 3, 4, 5, 6, 7, 15, 16, 17, 18, 19, 20, 21, 22, 23, 24, 25, 26, 31, 32, 33, 34, 35, 36, [invAb] at 3' end, other sugars and backbone not given here) [compound 22947] | 81.88% |
| 22971 (AGGAAGAGGCTAGCTACAACGAAGAGAAAN; 3' inverted abasic cap (B); misc_feature (30)..(30): n stands for inverted deoxyabasic derivative; misc_feature (1)..(7): 2'-O-Methyl; misc_feature (23)..(29): 2'-O-Methyl) [compound 22971] | 92.11% |
| 22972 (UGAGAGAGGCTAGCTACAACGAGAGGAAGN; 3' inverted abasic cap (B); Description of Artificial Sequence: Nucleic Acid; misc_feature (30)..(30): "n" is an inverted deoxyabasic moiety; misc_feature (1)..(7): 2'-O-Methyl; misc_feature (23)..(29): 2'-O-Methyl) [compound 22972] | 86.38% |
| 22973 (AGGUGAAGGCTAGCTACAACGAAGCUGAGN; 3' inverted abasic cap (B); Description of Artificial Sequence: Nucleic Acid; misc_feature (30)..(30): n stands for inverted deoxyabasic derivative; misc_feature (1)..(7): 2'-O-Methyl; misc_feature (23)..(29): 2'-O-Methyl) [compound 22973] | 83.15% |
| 22974 (CUGGUGAGGCTAGCTACAACGAGGAGGCUN; 3' inverted abasic cap (B); misc_feature (30)..(30): n stands for inverted deoxyabasic derivative; misc_feature (1)..(7): 2'-O-Methyl; misc_feature (23)..(29): 2'-O-Methyl) [compound 22974] | 57.82% |
| 22975 (UGGUGUAGGCTAGCTACAACGAGCGUUGAN; 3' inverted abasic cap (B); Description of Artificial Sequence: Nucleic Acid; misc_feature (30)..(30): n stands for inverted deoxyabasic derivative; misc_feature (1)..(7): 2'-O-Methyl; misc_feature (23)..(29): 2'-O-Methyl) [compound 22975] | 75.77% |
